# Patent US5801197A, “Rotamase enzyme activity inhibitors” (GPI Nil Holdings, Inc., priority 1996, dated 1998)
# Columns and labels:
# [1] = tested on: chick dorsal root ganglia; experiment: Neurite outgrowth in chick dorsal root ganglion cultures; format: cell-based; conditions: for EC50: Gallus gallus, chick DRG explants, 48 h after drug treatment, read-out: ED50, Neurite Outgrowth in DRG cultures
# Experimental: In the present work explants of chick dorsal root ganglia have been used, which are easier to employ in studies of nerve outgrowth.
# Chick Dorsal Root Ganglion Cultures and Neurite Outgrowth
# Dorsal root ganglia were dissected from chick embryos of ten day gestation. Whole ganglion explants were cultured on thin layer Matrigel-coated 12 well plates with Liebovitz L15 plus high glucose media supplemented with 2 mM glutamine and 10% fetal calf serum, and also containing 10 μM cytosine β-D arabinofuranoside (Ara C) at 37° C. in an environment containing 5% CO2. Twenty-four hours later, the DRGs were treated with various concentrations of nerve growth factor, immunophilin ligands or combinations of NFG plus drugs. Forty-eight hours after drug treatment, the ganglia were visualized under phase contrast or Hoffman Modulation contrast with a Zeiss Axiovert inverted microscope. Photomicrographs of the explants were made, and neurite outgrowth was quantitated. Neurites longer than the DRG diameter were counted as positive, with total number of neurites quantitated per each experimental condition. Three to four DRGs are cultured per well, and each treatment was performed in duplicate. Data from 6-10 different concentrations were used to generate dose-response curves, from which ED50 values were calculated.
# rat dorsal root ganglia = conditions: rat DRG explants, cited from earlier work
# PC12 cells = conditions: picomolar concentrations; cited from earlier work
# [2] = tested on: dorsal root ganglion cells (DRGs); conditions: picomolar concentrations; sensory neurons; cited from earlier work
# facial nerve injury = conditions: whole animal experiments; cited from earlier work
# sciatic nerve lesions = conditions: whole animal experiments; cited from earlier work
# [3] = tested on: growth-associated protein-43 (GAP43); conditions: cited from earlier work
Structure (SMILES),EC50 [1] [nM],also measured
O=C(C(=O)N1CCCC[C@H]1C(=O)OC(CCCc1ccccc1)CCCc1cccnc1)c1ccccc1 (stereo partly shown) [Compound 17],1 to 5,
O=C(C(=O)N1CCCC[C@H]1C(=O)OC(CCCc1ccccc1)CCCc1ccccn1)c1ccccc1 (stereo partly shown) [Compound 18],0.063,
COc1ccc(CCC(CCCc2ccccc2)OC(=O)[C@@H]2CCCCN2C(=O)C(=O)c2ccccc2)cc1 (stereo partly shown) [Compound 19],10 to 20,
O=C(C(=O)N1CCCC[C@H]1C(=O)OC(CCCc1ccccc1)CCCc1ccccc1)c1ccccc1 [Compound 20],0.0044,
COc1cc(C(=O)C(=O)N2CCCC[C@H]2C(=O)OC(CCCc2ccccc2)CCCc2ccccc2)cc(OC)c1OC [Compound 21],0.61,"dose-dependence of neurotrophic effects in neuronal cultures ([1]; FIG. 3, cultured sensory neurons): dose-dependent neurotrophic effects"
COc1cc(C(=O)C(=O)N2CCCC[C@H]2C(=O)OC(CCCc2ccccc2)CCc2cccnc2)cc(OC)c1OC (stereo partly shown) [Compound 22],0.95,neurite outgrowth in cultured sensory neurons (photomicrograph) ([1]; 1 nM): responding to trophic effects
COc1cc(C(=O)C(=O)N2CCCC[C@H]2C(=O)OC(CCCc2ccccc2)CCCc2ccccn2)cc(OC)c1OC (stereo partly shown) [Compound 23],25,
COc1ccc(CCCC(CCCc2ccccc2)OC(=O)[C@@H]2CCCCN2C(=O)C(=O)c2cc(OC)c(OC)c(OC)c2)cc1 (stereo partly shown) [Compound 24],0.5,
CC(C)Oc1cccc(C(=O)C(=O)N2CCCC[C@H]2C(=O)OC(CCCc2ccccc2)CCCc2cccnc2)c1 (stereo partly shown) [Compound 25],0.3,
O=C(C(=O)N1CCCC[C@H]1C(=O)OCc1ccccc1)c1ccccc1 [Example 1],25 to 100,
O=C(C(=O)N1CCCC[C@H]1C(=O)OCCCc1ccccc1)c1ccccc1 [Example 2],10 to 20,
COc1ccc(CCCCOC(=O)[C@@H]2CCCCN2C(=O)C(=O)c2ccccc2)cc1 [Example 3],0.5,
O=C(C(=O)N1CCCC[C@H]1C(=O)OCCCCc1ccccc1)c1ccccc1 [Example 4],25 to 100,
O=C(C(=O)N1CCCC[C@H]1C(=O)OCCc1ccccc1)c1ccccc1 [Example 5],25 to 100,
O=C(C(=O)N1CCCC[C@H]1C(=O)OCCCCC1CCCCC1)c1ccccc1 [Example 6],10 to 20,
COC(=O)C(=O)N1CCCC[C@H]1C(=O)OCc1ccccc1 [Example 7],> 10000,
COC(=O)C(=O)N1CCCC[C@H]1C(=O)OCCCCC1CCCCC1 [Example 8],> 10000,
COC(=O)C(=O)N1CCCC[C@H]1C(=O)OCCCC1CCCCC1 [Example 9],> 10000,
COC(=O)C(=O)N1CCCC[C@H]1C(=O)OCCCC1CCCC1 [Example 10],> 10000,
O=C(C(=O)N1CCCC[C@H]1C(=O)OCc1ccccc1)c1ccco1 [Example 11],1000,
COc1cc(C(=O)C(=O)N2CCCC[C@H]2C(=O)OCCCCC2CCCCC2)cc(OC)c1OC [Example 12],0.031,
COc1cc(C(=O)C(=O)N2CCCC[C@H]2C(=O)OCc2cccc(Oc3ccccc3)c2)cc(OC)c1OC [Example 13],0.18,
COc1cc(C(=O)C(=O)N2CCCC[C@H]2C(=O)OCCCCc2ccccc2)cc(OC)c1OC [Example 14],1 to 5,
COc1cc(C(=O)C(=O)N2CCCC[C@H]2C(=O)OCCCc2c[nH]c3ccccc23)cc(OC)c1OC [Example 15],0.055,neurite outgrowth in cultured sensory neurons (photomicrograph) ([1]; 300 pM): stimulation of neurite outgrowth
COc1ccc(CCCCOC(=O)[C@@H]2CCCCN2C(=O)C(=O)c2cc(OC)c(OC)c(OC)c2)cc1 [Example 16],0.03,
C=CC[C@@H]1/C=C(\C)C[C@H](C)C[C@H](OC)[C@H]2O[C@@](O)(C(=O)C(=O)N3CCCC[C@H]3C(=O)O[C@H](/C(C)=C/[C@@H]3CC[C@@H](O)[C@H](OC)C3)[C@H](C)[C@@H](O)CC1=O)[C@H](C)C[C@@H]2OC [FK506],,neurotrophic effects in the absence of NGF (rat dorsal root ganglia; no NGF): neurotrophic effects were observed; lowest concentration with significant augmentation in nerve outgrowth (rat dorsal root ganglia): 1 picomolar; stimulation of neurite outgrowth (PC12 cells): stimulate neurite out growth in PC12 cells; stimulation of neurite outgrowth [2]: stimulate neurite out growth in PC12 cells and sensory neurons; nerve regeneration following facial nerve injury (facial nerve injury): stimulate nerve regeneration following facial nerve injury; functional recovery in animals with sciatic nerve lesions (sciatic nerve lesions): functional recovery in animals with sciatic nerve lesions; phosphorylation of GAP43 [3]: augments the phosphorylation
CO[C@H]1C[C@@H]2CC[C@@H](C)[C@@](O)(O2)C(=O)C(=O)N2CCCC[C@H]2C(=O)O[C@H]([C@H](C)C[C@@H]2CC[C@@H](O)[C@H](OC)C2)CC(=O)[C@H](C)/C=C(\C)[C@@H](O)[C@@H](OC)C(=O)[C@H](C)C[C@H](C)/C=C/C=C/C=C/1C [rapamycin],,stimulation of neurite outgrowth (PC12 cells): stimulate neurite out growth in PC12 cells; stimulation of neurite outgrowth [2]: stimulate neurite out growth in PC12 cells and sensory neurons
